Test results published in patent publication US20120009320A1, “COMPOSITIONS COMPRISING MONATIN AND CALCIUM” (priority 2009, published 2012).
Marks after values point to notes of the source that are not given here. Peptide text beside a SMILES is read from it.

What was measured:
[1] = test system: panelists; assay: Sweetness matching of monatin/salt combinations in water pH 7 and citric/citrate buffer pH 3, Examples 3-5; type: in vivo, human
Procedure: Test and reference solutions were prepared in the same medium. The SEVs of monatin/salt combinations at the appropriate concentrations were measured and compared to the SEV of monatin measured in the absence of any salts. […] Monatin-containing test samples and sucrose references were prepared in the same medium. Based on the previous observations that the sweetness of monatin relative to sucrose is sweeter at acidic pH, this study was carried out under two pH conditions; specifically, in water at pH 7-7.5 and in a citric/citrate buffer at pH 3.0. 2R,4R-Monatin mono potassium salt was used as an illustrative form of monatin for the experiments below. All monatin solutions were prepared ‘as is’, i.e., a 40 ppm monatin solution is 40 ppm of monatin mono potassium salt. A sweetness matching procedure was adopted. […] Each test sample was either monatin control or monatin plus designated salt at the stated concentration. Panelists were instructed to taste the test sample and then to identify the reference sample that matched the perceived sweetness of the test sample. If the sweetness of the test sample was judged to fall between that of two references, panelists were instructed to estimate sweetness to one decimal point. Panelists evaluated each sample in duplicate. Results for each test sample were averaged. […] The five samples were tested at pH 7 (water medium) and at pH 3 (citric/citrate buffer). […] The weight percent of calcium in the salt is different for each of the calcium salts. As such, the weight percent of the calcium salt in each sample is calculated in order to determine how much salt is needed to deliver 1200 ppm of calcium cations. […] The weight percent of the other calcium salts is similarly calculated based on the molar weight percent of calcium in the calcium salt. […] The samples were created at pH 3 and pH 7. The impact of other metal ions, specifically potassium and magnesium, (i.e. […] These ions were tested in the form and concentrations found in cow's milk.

[2] = Schiffman, Physiology & Behavior 68 (2000); cited from earlier work
[3] = Sweetness of monatin stereoisomers relative to sucrose by weight (from SEV); type: in vivo; details: general statement of the description
Procedure: As used herein, “sucrose equivalency value”, or SEV, is a measure of sweetness. The SEV is the concentration (% w/v) of a sucrose solution that gives a degree of sweetness that is perceived to be the same degree of sweetness as that of a test sample. For purposes of this disclosure, the SEV of an aqueous or dairy solution containing monatin is determined through comparison of the monatin-containing solution to a series of sucrose containing solutions prepared in the same medium (see Example 1).
Monatin-containing compositions are described herein as being “X” times as sweet as sucrose. The various stereoisomers of monatin are also described as being “X” times sweeter than sucrose. These values are determined from the SEV of the compositions.

[4] = salt (1450 ppm K+ or 170 ppm Mg2+) with 40 ppm monatin vs monatin only, pH 3.0
[5] = salt (1450 ppm K+ or 170 ppm Mg2+) with 40 ppm monatin, pH 3.0, KCl solutions very salty, estimates difficult
[6] = salt (1450 ppm K+ or 170 ppm Mg++) with 40 ppm monatin vs monatin only, pH 7.0
[7] = salt (1450 ppm K+ or 170 ppm Mg++) with 40 ppm monatin, pH 7.0, KCl solutions very salty, estimates difficult
[8] = 200 ppm calcium (from calcium chloride), 40 ppm monatin, pH 3.0
[9] = 200 ppm calcium (from calcium chloride), 40 ppm monatin, pH 7.0
[10] = calcium salt at 1200 ppm Ca2+ with 40 ppm monatin vs monatin only, pH 3.0
[11] = calcium salt at 1200 ppm Ca2+ with 40 ppm monatin vs monatin only, pH 7.0
[12] = calcium salt at 1200 ppm Ca2+ with 40 ppm monatin, pH 3.0
[13] = calcium salt at 1200 ppm Ca2+ with 40 ppm monatin, pH 7.0
[14] = 400 ppm calcium (from calcium chloride), 40 ppm monatin, pH 3.0
[15] = 400 ppm calcium (from calcium chloride), 40 ppm monatin, pH 7.0
[16] = 800 ppm calcium (from calcium chloride), 40 ppm monatin, pH 3.0
[17] = 800 ppm calcium (from calcium chloride), 40 ppm monatin, pH 7.0
[18] = 1200 ppm calcium (from calcium chloride), 40 ppm monatin, pH 3.0
[19] = 1200 ppm calcium (from calcium chloride), 40 ppm monatin, pH 7.0

## [Cl-].[K+] [Potassium chloride]
[1]; [4]
  Sweetness Enhancement: 7%
[1]; [5]
  Sucrose Equivalency Value: 9.2%
[1]; [6]
  Sweetness Enhancement: 4%
[1]; [7]
  Sucrose Equivalency Value: 8.7%

## COC(=O)[C@H](Cc1ccccc1)NC(=O)[C@@H](N)CC(=O)O [aspartame] (HELM PEPTIDE1{D.F.[CO[*:1]]}$$$$V2.0)
[2]
  effect of the addition of calcium ions on the sweetness intensity of the sweetener: did not have an effect

## OC[C@H]1O[C@@](CO)(O[C@H]2O[C@H](CO)[C@@H](O)[C@H](O)[C@H]2O)[C@@H](O)[C@@H]1O [sucrose]
[2]
  effect of the addition of calcium ions on the sweetness intensity of the sweetener: did not have an effect

## calcium
[1]; [8]
  Sweetness Enhancement: 10%
[1]; [9]
  Sweetness Enhancement: 19%

## CC(O)C(=O)[O-].CC(O)C(=O)[O-].[Ca+2] (stereo not drawn) [Calcium lactate]
[1]; [10]
  Sweetness Enhancement: 10%
[1]; [11]
  Sweetness Enhancement: 13%
[1]; [12]
  Sucrose Equivalency Value: 9.5%
[1]; [13]
  Sucrose Equivalency Value: 9.5%

## [Ca+2].[Cl-].[Cl-] [Calcium chloride]
[1]; [8]
  Sucrose Equivalency Value: 9.5%
  Sweetness Enhancement: 10%
[1]; [9]
  Sucrose Equivalency Value: 10.0%
  Sweetness Enhancement: 19%
[1]; [14]
  Sucrose Equivalency Value: 10.0%
  Sweetness Enhancement: 16%
[1]; [15]
  Sucrose Equivalency Value: 10.2%
  Sweetness Enhancement: 21%
[1]; [16]
  Sucrose Equivalency Value: 10.2%
  Sweetness Enhancement: 19%
[1]; [17]
  Sucrose Equivalency Value: 10.2%
  Sweetness Enhancement: 21%
[1]; [18]
  Sucrose Equivalency Value: 10.3%
  Sweetness Enhancement: 20%
[1]; [19]
  Sucrose Equivalency Value: 10.1%
  Sweetness Enhancement: 20%
[1]; 1600 ppm calcium (from calcium chloride), 40 ppm monatin, pH 3.0
  Sweetness Enhancement: 19%
[1]; 1600 ppm calcium (from calcium chloride), 40 ppm monatin, pH 3.0, solutions very salty, SEV estimate very difficult
  Sucrose Equivalency Value: 10.2** %
[1]; 1600 ppm calcium (from calcium chloride), 40 ppm monatin, pH 7.0
  Sweetness Enhancement: 21%
[1]; 1600 ppm calcium (from calcium chloride), 40 ppm monatin, pH 7.0, solutions very salty, SEV estimate very difficult
  Sucrose Equivalency Value: 10.2** %
[1]; [10]
  Sweetness Enhancement: 20%
[1]; [11]
  Sweetness Enhancement: 20%
[1]; [12]
  Sucrose Equivalency Value: 10.3%
[1]; [13]
  Sucrose Equivalency Value: 10.1%

## Calcium gluconate
[1]; [10]
  Sweetness Enhancement: 7%
[1]; [11]
  Sweetness Enhancement: 13%
[1]; [12]
  Sucrose Equivalency Value: 9.2%
[1]; [13]
  Sucrose Equivalency Value: 9.5%

## NC(CC(O)(Cc1c[nH]c2ccccc12)C(=O)O)C(=O)O (stereo not drawn) [S,S stereoisomer of monatin, 4-amino-2-hydroxy-2-(1H-indol-3-ylmethyl)-pentanedioic acid]
[3]
  times sweeter than sucrose by weight: 50-200 times

## Magnesium gluconate
[1]; [4]
  Sweetness Enhancement: 6%
[1]; [5]
  Sucrose Equivalency Value: 9.1%
[1]; [6]
  Sweetness Enhancement: 9%
[1]; [7]
  Sucrose Equivalency Value: 9.2%
